Data on six molecules can be found in paper PMC5303003 (Bioorganic & medicinal chemistry, 2017).

Read-outs that look alike come from different tables or passages of the source.

Assay [1] has as its target vesicular acetylcholine transporter (VAChT). The settings on record: cited from earlier work.
The target of assay [2] is emopamil binding protein (EBP). The settings on record: read-out: Ki for emopamil binding protein (EBP); cited from earlier work.
The next assay concerns the target σ2 receptor. The settings on record: read-out: Ki-σ2; cited from earlier work.
Assay [3] addresses σ1 receptor. The note with it: cited from earlier work; for Ki: read-out: Ki-σ1.
Assay [4] concerns σ1 receptor. Kind of assay: MicroPET blocking study with σ1 ligand pretreatment in nonhuman primate. The format is in vivo, cynomolgus macaque. The settings on record: 1.0 mg/kg i.v. 5 min prior to tracer injection, NHP, versus baseline.
Assay [5] concerns the target T1, σ1 receptor (Cavia porcellus, UniProt Q60492). The note with it: read-out: Ki-σ1 of racemic compounds, previously reported; cited from earlier work.
Assay [6] deals with T1, σ1 receptor. As to the kind of experiment: σ1 receptor competitive binding assay. The settings on record: Ki σ1, (+)-isomer, guinea pig brain membranes, mean ± SEM.

T1 sequence (Q60492 whole entry): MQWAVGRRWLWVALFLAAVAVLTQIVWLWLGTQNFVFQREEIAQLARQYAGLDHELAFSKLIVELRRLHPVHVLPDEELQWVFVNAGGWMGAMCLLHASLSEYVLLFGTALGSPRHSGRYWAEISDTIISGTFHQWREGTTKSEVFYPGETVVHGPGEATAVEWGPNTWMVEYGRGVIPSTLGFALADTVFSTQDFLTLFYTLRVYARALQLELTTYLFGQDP

What is called Ki is the equilibrium dissociation constant of an inhibitor or competing ligand from its target. Turning to `COc1ccc(CCN2CCN(CCCc3ccccc3)CC2)cc1OC` [SA4503], the results for the inhibition constant (Ki) in assay [1] (read-out: Ki for VAChT) and in assay [2] were 50 nM and 1.7 nM, respectively. On to `O=C(Cc1ccccc1F)NC1CCC(Cc2ccccc2)CC1` (centres unmarked) [Yun122, N-(4-benzylcyclohexyl)-2-(2-fluorophenyl)acetamide], for which the inhibition constant (Ki) is 667 nM on σ2 receptor and 3.6 nM at σ1 receptor [3]. Further, in the assay with σ1 receptor [4], the “effect of pretreatment on brain uptake of (−)-[18F]TZ3108” value is reported as “significantly reduced”. In the case of `O=C(c1ccc(F)cc1)C1CCN(C2CCN(Cc3ccc(F)cc3)CC2O)CC1` (racemic) [14a], the inhibitory constant (Ki) at σ1 receptor [5] was 0.48 nM. On to `COc1ccc(CCN2CCN(CCCc3ccccc3)CC2)cc1O[11CH3]` [[^11C]SA4503, 1-(4-methoxy-3-(methoxy-^11C)phenethyl-^11C)-4-(3-phenyl-propyl)piperazine], for which, in the assay on σ1 receptor [3], the “selectivity for σ1 over VAChT” value is reported as 11 fold and the “selectivity for σ1 over σ2 receptor” value is recorded as 55 fold.

On to `O=C(c1ccc(F)cc1)C1CCN(C2CCN(Cc3ccc(F)cc3)CC2O)CC1` (single isomer, unassigned; (+)) [(+)-14a], for which the Ki at σ1 receptor [6] came out at 0.14 ± 0.02 nM.

Regarding `O=c1sc2cc(CCCF)ccc2n1CCN1CCCCCC1` [[^18F]FTC-146, ^18F-6-(3-fluoropropyl)-3-(2-(azepan-1 yl)ethyl)benzo-[d]thiazol-2(3H)-one], the Ki in assay [1] (read-out: Ki-VAChT) was 450 nM; at σ1 receptor [3] it was 0.0025 nM.
